Experimental data from patent publication US20250009819A1, “NOVEL PROBIOTICS AND USE THEREOF” (PBLBIOLAB CO., LTD., priority 2021, published 2025).

What was measured:
[1] = Antioxidant activity (DPPH, in vitro); format: biochemical; conditions: DPPH 0.2 mM; lactic acid bacteria suspension 1×10^8 CFU/ml; 37° C. 20 min
Procedure: DPPH (2,2-Diphenyl-1-picrylhydrazyl) was dissolved in ethanol to a concentration of 0.2 mM to prepare DPPH solution. Lactic acid bacteria suspension (1×10^8 CFU/ml) or vitamin C solution (1 g/ml) was added to 0.1 ml of the above DPPH solution and incubated at 37° C. for 20 min. The culture was centrifuged at 3000 rpm for 5 min to obtain a supernatant. The absorbance of the supernatant was then measured at 517 nm and the antioxidant activity of the lactic acid bacteria was calculated.

TNF-α = TNF-α expression in LPS-treated macrophages (ELISA); format: cell-based, C57BL/6 mice; conditions: macrophages treated with lactic acid bacteria and LPS for 24 hours
Procedure: (§1) C57BL/6 mice (male, 6 weeks old, 20-23 g) were subjected to an intraperitoneal injection of 2 ml of sterile 4% thioglycolate solution, and after 96 hours, the mice were anesthetized and injected with 8 ml of RPMI 1640 medium through the peritoneal cavity. Then, after 5-10 minutes, the RPMI medium (macrophages) in the mouse peritoneal cavity was extracted, centrifuged at 1000 g for 10 minutes, and washed again with RPMI 1640 medium twice. Macrophages were seeded in 24-well plates at a count of 0.5×10^6 in each well, and treated with lactic acid bacteria and LPS, an inflammatory response-inducing substance, for 24 hours. TNF-α and IL-10 cytokine expression amount in the culture supernatant was then measured by ELISA Kit.

Neuropeptide Y (NPY) = Neuropeptide Y (NPY) expression in PC12 phaeochromocytoma cells; format: cell-based; conditions: LPS 200 ng/ml; lactic acid bacteria 1×10^4 CFU/ml; 24 hr
Procedure: (§2) PC12 cells obtained from the Korean Cell Line Bank were cultured in DMEM medium supplemented with 10% FBS and 1% antibiotics, and dispensed at 1×10^6 cells per well in a 12-well plate. Then, LPS (200 ng/ml) was added to each well along with lactic acid bacteria (1×10^4 CFU/ml) and incubated for 24 hr. The cells and supernatants were collected, sonicated and centrifuged, and the amount of NPY in the supernatant was measured by ELISA kit.

Clostridium difficile = Clostridium difficile proliferation in gut microbiota (PCR); format: cell-based; conditions: human feces culture; lactic acid bacteria 1×10^6 CFU/mL; anaerobic 24 hr
Procedure: Fresh human feces were suspended in anaerobic medium (GAM, Nissui Pharmaceutical Co., Ltd., Japan) and allowed to stand for 10 min. The supernatant was diluted with 10,000-fold anaerobic medium, 0.05 mL of the dilution was transplanted into 5 mL of freshly made anaerobic medium, and lactic acid bacteria (1×10^6 CFU/mL) were implanted and incubated anaerobically for 24 hr. This culture medium was divided into two, one was centrifuged (5000 rpm, 20 minutes), the precipitated DNA was isolated using the QIAamp DNA stool mini kit (Qiagen, Germany), and Clostridium difficile (primer: forward, 5′-[…]-3′ (SEQ ID NO: 4); reverse, 5′-[…]-3′ (SEQ ID NO: 5) was quantified by PCR. The reaction product was first treated at 95° C. for 30 seconds, followed by 42 cycles of 5 seconds at 95° C. and 30 seconds at 72° C. for analysis. In addition, one culture medium was sonicated, centrifuged, and filter-sterilized, and the amount of LPS in the supernatant was measured using an ELISA kit.

gut microbiota = assay: LPS production in gut microbiota (ELISA); format: cell-based; conditions: human feces culture; lactic acid bacteria 1×10^6 CFU/mL; anaerobic 24 hr
Procedure: Fresh human feces were suspended in anaerobic medium (GAM, Nissui Pharmaceutical Co., Ltd., Japan) and allowed to stand for 10 min. The supernatant was diluted with 10,000-fold anaerobic medium, 0.05 mL of the dilution was transplanted into 5 mL of freshly made anaerobic medium, and lactic acid bacteria (1×10^6 CFU/mL) were implanted and incubated anaerobically for 24 hr.

BDNF = BDNF expression in SH-SY5Y cells; format: cell-based; conditions: LPS 200 ng/ml; lactic acid bacteria 1×10^4 CFU/ml; 24 h
Procedure: as §2, with “SH-SY5Y” for “PC12”, “2×10^6” for “1×10^6”, “h.” for “hr.”, “BDNF” for “NPY”

IL-10 = IL-10 expression in LPS-treated macrophages (ELISA); format: cell-based, C57BL/6 mice; conditions: macrophages treated with lactic acid bacteria and LPS for 24 hours
Procedure: as §1

Substance | Antioxidant activity [1] | Macrophage Inhibition of TNF-α expression (TNF-α) | PC12 cell Induction of NPY expression (Neuropeptide Y (NPY)) | Gut microbiota Inhibition of difficile bacteria proliferation (Clostridium difficile) | Gut microbiota Inhibition of LPS production (gut microbiota) | SHSY5Y cell Induction of BDNF expression (BDNF) | Macrophage Induction of IL-10 expression (IL-10)
Bifidobacterium catenulatum NK225 | + (weakly (+; >20-60%)) | + (weakly (+; >20-60%)) | − (not or less than 20% (−; <20%)) | + (weakly (+; >20-60%)) | − (not or less than 20% (−; <20%)) | − (not or less than 20% (−; <20%)) | + (weakly (+; >20-60%))
Bifidobacterium catenulatum NK227 | + (weakly (+; >20-60%)) | + (weakly (+; >20-60%)) | + (weakly (+; >20-60%)) | + (weakly (+; >20-60%)) | + (weakly (+; >20-60%)) | − (not or less than 20% (−; <20%)) | + (weakly (+; >20-60%))
Lactobacillus plantarum NK183 | + (weakly (+; >20-60%)) | + (weakly (+; >20-60%)) | − (not or less than 20% (−; <20%)) | + (weakly (+; >20-60%)) | + (weakly (+; >20-60%)) | − (not or less than 20% (−; <20%)) | − (not or less than 20% (−; <20%))
Bifidobacterium infantis NK215 | ++ (strongly (++; >60-90%)) | + (weakly (+; >20-60%)) | + (weakly (+; >20-60%)) | + (weakly (+; >20-60%)) | + (weakly (+; >20-60%)) | − (not or less than 20% (−; <20%)) | + (weakly (+; >20-60%))
Bifidobacterium pseudocatenulatum NK230 | + (weakly (+; >20-60%)) | − (not or less than 20% (−; <20%)) | + (weakly (+; >20-60%)) | + (weakly (+; >20-60%)) | + (weakly (+; >20-60%)) | + (weakly (+; >20-60%)) | − (not or less than 20% (−; <20%))
Bifidobacterium catenulatum NK226 | + (weakly (+; >20-60%)) | − (not or less than 20% (−; <20%)) | − (not or less than 20% (−; <20%)) | + (weakly (+; >20-60%)) | − (not or less than 20% (−; <20%)) | + (weakly (+; >20-60%)) | − (not or less than 20% (−; <20%))
Lactobacillus reuteri NK201 | + (weakly (+; >20-60%)) | + (weakly (+; >20-60%)) | + (weakly (+; >20-60%)) | + (weakly (+; >20-60%)) | + (weakly (+; >20-60%)) | + (weakly (+; >20-60%)) | + (weakly (+; >20-60%))
Lactobacillus rhamnosus NK212 | ++ (strongly (++; >60-90%)) | − (not or less than 20% (−; <20%)) | − (not or less than 20% (−; <20%)) | − (not or less than 20% (−; <20%)) | + (weakly (+; >20-60%)) | − (not or less than 20% (−; <20%)) | − (not or less than 20% (−; <20%))
Bifidobacterium bifidum NK223 | + (weakly (+; >20-60%)) | + (weakly (+; >20-60%)) | − (not or less than 20% (−; <20%)) | − (not or less than 20% (−; <20%)) | − (not or less than 20% (−; <20%)) | + (weakly (+; >20-60%)) | + (weakly (+; >20-60%))
Lactobacillus plantarum NK184 | ++ (strongly (++; >60-90%)) | + (weakly (+; >20-60%)) | − (not or less than 20% (−; <20%)) | + (weakly (+; >20-60%)) | + (weakly (+; >20-60%)) | − (not or less than 20% (−; <20%)) | + (weakly (+; >20-60%))
Bifidobacterium pseudocatenulatum NK228 | + (weakly (+; >20-60%)) | − (not or less than 20% (−; <20%)) | + (weakly (+; >20-60%)) | − (not or less than 20% (−; <20%)) | ++ (strongly (++; >60-90%)) | + (weakly (+; >20-60%)) | − (not or less than 20% (−; <20%))
Lactobacillus plantarum NK181 | + (weakly (+; >20-60%)) | + (weakly (+; >20-60%)) | + (weakly (+; >20-60%)) | + (weakly (+; >20-60%)) | − (not or less than 20% (−; <20%)) | − (not or less than 20% (−; <20%)) | − (not or less than 20% (−; <20%))
Lactobacillus gasseri NK186 | + (weakly (+; >20-60%)) | + (weakly (+; >20-60%)) | − (not or less than 20% (−; <20%)) | + (weakly (+; >20-60%)) | + (weakly (+; >20-60%)) | − (not or less than 20% (−; <20%)) | + (weakly (+; >20-60%))
Lactobacillus paracasei NK189 | + (weakly (+; >20-60%)) | + (weakly (+; >20-60%)) | − (not or less than 20% (−; <20%)) | + (weakly (+; >20-60%)) | + (weakly (+; >20-60%)) | − (not or less than 20% (−; <20%)) | − (not or less than 20% (−; <20%))
Lactobacillus reuteri NK200 | + (weakly (+; >20-60%)) | − (not or less than 20% (−; <20%)) | + (weakly (+; >20-60%)) | + (weakly (+; >20-60%)) | + (weakly (+; >20-60%)) | + (weakly (+; >20-60%)) | − (not or less than 20% (−; <20%))
